pIC50: −log10 of the molar value.

The target in this assay is T1, GlyT1 transporter (Homo sapiens, UniProt P48067).
T1 construct: endogenously expressing the GlyT1 transporter; host or cells: SK-N-MC human neuroblastoma cells
T1 sequence (P48067 1-706): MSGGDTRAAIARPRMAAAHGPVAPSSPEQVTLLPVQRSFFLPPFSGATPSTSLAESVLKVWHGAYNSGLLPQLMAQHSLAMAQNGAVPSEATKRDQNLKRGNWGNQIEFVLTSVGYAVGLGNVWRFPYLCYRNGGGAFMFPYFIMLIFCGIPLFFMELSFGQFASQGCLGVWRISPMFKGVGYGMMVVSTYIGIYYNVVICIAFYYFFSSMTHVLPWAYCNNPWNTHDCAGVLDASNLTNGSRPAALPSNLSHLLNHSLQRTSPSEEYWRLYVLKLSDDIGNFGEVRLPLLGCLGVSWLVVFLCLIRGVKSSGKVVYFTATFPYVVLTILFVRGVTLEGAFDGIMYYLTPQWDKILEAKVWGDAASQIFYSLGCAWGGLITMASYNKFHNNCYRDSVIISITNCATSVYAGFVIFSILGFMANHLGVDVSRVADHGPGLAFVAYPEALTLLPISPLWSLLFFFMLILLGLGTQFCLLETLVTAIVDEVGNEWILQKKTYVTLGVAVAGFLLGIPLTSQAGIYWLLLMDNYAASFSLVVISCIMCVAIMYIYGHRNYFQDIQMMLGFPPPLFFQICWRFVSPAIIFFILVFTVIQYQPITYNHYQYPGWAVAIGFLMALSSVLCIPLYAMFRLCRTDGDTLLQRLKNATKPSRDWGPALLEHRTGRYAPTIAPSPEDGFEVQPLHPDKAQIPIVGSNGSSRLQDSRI
Kind of assay: GlyT1 assay: 3H-glycine uptake into SK-N-MC cells (Cytostar-T format). It is filed as cell-based. As to conditions: glycine uptake in human SK-N-MC cells endogenously expressing GlyT1; 500 nM glycine, 1% DMSO, signal recorded over 60 min. The source says:
Cells expressing either endogenously the GlyT1 transporter like JAR cells (human placental choriocarcinoma cells; e.g. WO 2008/002583) or SK-N-MC cells (human neuroblastoma cells; Depoortere et al., 2005. Neuropsychopharmacology 30:1963-1985) or primary neurons or cells which have been transfected with a plasmid encoding the cDNA of a functional GlyT1 transporter and stably or transiently express GlyT1 (e.g. WO 2006/08200) can be used to monitor glycine uptake in cells. Different protocols for determination of the glycine uptake into the cells described above can be applied in order to identify and rank compounds which interfere with glycine uptake in the selected cell.
Compounds outlined in the examples below were characterized using human SK-N-MC cells (ATCC number HTB-10) endogenously expressing the GlyT1 transporter which is responsible for the uptake of glycine into these cells and the uptake of glycine into these cells is monitored using the Cytostar-T assay format (GE Healthcare, RPNQ0162) which is based on the radioactive glycine taken up by the cells and brought into proximity with the scintillant contained within the base of the plate. The radioactive decay is converted to a light signal based on the integration of the scintillation matrix into the assay plate. The uptake is recorded as kinetic and the slope of the measured counts over time is used to calculate IC50.
In detail, SK-N-MC cells are seeded into 96-well Cytostar-T assay plates at a density of 200,000 cells/well and grown for 16-18 hours to confluence in growth medium as recommended by ATCC. Before starting the assay, cells are washed once with HBSS (Hank's buffered salt solution; Sigma, H8264) cont. 5 mM alanine (referred in here as HBSS/Ala) and afterwards the following reagents are added: • 1. 80 μl/well HBSS/Ala • 2. 20 μl/well of HBSS/Ala containing 6× the concentration of compound in 6% DMSO • 3. approx. 5-10 min incubation • 4. 20 μl/well 3 μM glycine (^3H-glycine (Perkin Elmer, NET004001MC, specific activity: 52 Ci/mmol; diluted 1:1 with unlabelled glycine) in HBSS/Ala.
In the final assay, glycine concentration is 500 nM (250 nM derived from the ^3H-glycine Perkin Elmer, 250 nM unlabelled glycine), DMSO concentration is 1%.
The assay plate is immediately after addition of the ^3H-glycine placed into a Micro-Beta Counter (Perkin Elmer) and the signal is recorded over 60 min.
To calculate uptake, the slope in the linear range of the kinetics is determined using GraphPadPrism and for the different slopes at the selected concentrations IC50 are calculated by curve fitting using the software GraphPadPrism.
Maximal glycine uptake in every experiment is determined by incubation of SK-N-MC cells with substrate but without inhibitor. Unspecific uptake of glycine by the cells is determined by incubating the cells with substrate and a reference GlyT1 inhibitor e.g. 10 μM RG-1678 (Pinard et al., 2010, J. Med. Chem. 53(12):4603-14).
Compounds are diluted from 10 mM stocks and in general, for IC50 determination 8 compound concentrations are used.
On to `CCS(=O)(=O)c1ccc(O[C@H](C)C(F)(F)F)c(C(=O)N2CC3CC3(c3nccc(C(F)(F)F)n3)C2)c1` (mixture of isomers) [Example 76, [5-Ethanesulfonyl-2-(2,2,2-trifluoro-1-methyl-ethoxy)-phenyl]-[1-(4-trifluoromethyl-pyrimidin-2-yl)-3-aza-bicyclo[3.1.0]hex-3-yl]-methanone], for which the negative-log IC50 (pIC50) was 8.00.

As to `Cc1c(C23CC2CN(C(=O)c2cc(S(C)(=O)=O)ccc2O[C@@H](C)C(F)(F)F)C3)noc1C(F)(F)F` (mixture of isomers) [Example 163], the pIC50 was 7.80.

`C[C@H](Oc1ccc(S(C)(=O)=O)cc1C(=O)N1CC2CC2(c2csc(C(F)(F)F)n2)C1)C(F)(F)F` (single isomer, unassigned) [Example 28, [5-Methanesulfonyl-2-(2,2,2-trifluoro-1-methyl-ethoxy)-phenyl]-[1-(2-trifluoromethyl-thiazol-4-yl)-3-aza-bicyclo[3.1.0]hex-3-yl]-methanone] had a negative logarithm of the IC50 (pIC50) of 5.84. As to `C[C@@H](Oc1ccc(S(C)(=O)=O)cc1C(=O)N1CC2CC2(c2nc(C(F)(F)F)co2)C1)C(F)(F)F` (single isomer, unassigned) [Example 114, [5-Methanesulfonyl-2-(2,2,2-trifluoro-1-methyl-ethoxy)-phenyl]-[1-(4-trifluoromethyl-oxazol-2-yl)-3-aza-bicyclo[3.1.0]hex-3-yl]-methanone], the negative logarithm of the IC50 (pIC50) was 6.77. As for `CCS(=O)(=O)c1ccc(O[C@H](C)C(F)(F)F)c(C(=O)N2CC3CC3(c3noc(C(F)(F)F)n3)C2)c1` (mixture of isomers) [Example 92, [5-Ethanesulfonyl-2-(2,2,2-trifluoro-1-methyl-ethoxy)-phenyl]-[1-(5-trifluoromethyl-[1,2,4]oxadiazol-3-yl)-3-aza-bicyclo[3.1.0]hex-3-yl]-methanone], the figure is 7.60; as for `C[C@@H](Oc1ccc(S(C)(=O)=O)cc1C(=O)N1CC2CC2(c2nc(C(F)(F)F)no2)C1)C(F)(F)F` (mixture of isomers) [Example 37, [5-Methanesulfonyl-2-(2,2,2-trifluoro-1-methyl-ethoxy)-phenyl]-[1-(3-trifluoromethyl-[1,2,4]oxadiazol-5-yl)-3-aza-bicyclo[3.1.0]hex-3-yl]-methanone], 7.47. Then `C[C@H](Oc1ccc(S(C)(=O)=O)cc1C(=O)N1CC2CC2(c2noc(CC(F)(F)F)n2)C1)C(F)(F)F` (mixture of isomers) [Example 61, [5-Methanesulfonyl-2-(2,2,2-trifluoro-1-methyl-ethoxy)-phenyl]-{1-[5-(2,2,2-trifluoro-ethyl)-[1,2,4]oxadiazol-3-yl]-3-aza-bicyclo[3.1.0]hex-3-yl}-methanone], with 8.10; and `C[C@@H](Oc1ccc(S(C)(=O)=O)cc1C(=O)N1CC2CC2(c2noc(C3CC3)n2)C1)C(F)(F)F` (mixture of isomers) [Example 41, [1-(5-Cyclopropyl-[1,2,4]oxadiazol-3-yl)-3-aza-bicyclo[3.1.0]hex-3-yl]-[5-methanesulfonyl-2-(2,2,2-trifluoro-1-methyl-ethoxy)-phenyl]-methanone], with 8.22; and `C[C@H](Oc1ccc(S(C)(=O)=O)cc1C(=O)N1CC2CC2(c2nc(C(F)(F)F)no2)C1)C(F)(F)F` (mixture of isomers) [Example 36, [5-Methanesulfonyl-2-(2,2,2-trifluoro-1-methyl-ethoxy)-phenyl]-[1-(3-trifluoromethyl-[1,2,4]oxadiazol-5-yl)-3-aza-bicyclo[3.1.0]hex-3-yl]-methanone], with 7.21.

With `C[C@@H](Oc1ccc(S(C)(=O)=O)cc1C(=O)N1CC2CC2(c2noc(C3CC3)n2)C1)C(F)(F)F` (single isomer, unassigned) [Example 45, [1-(5-Cyclopropyl-[1,2,4]oxadiazol-3-yl)-3-aza-bicyclo[3.1.0]hex-3-yl]-[5-methanesulfonyl-2-(2,2,2-trifluoro-1-methyl-ethoxy)-phenyl]-methanone], the negative-log IC50 (pIC50) is 8.70. The compound `Cc1nc(C23CC2CN(C(=O)c2cc(S(C)(=O)=O)ccc2O[C@H](C)C(F)(F)F)C3)no1` (single isomer, unassigned) [Example 43, [5-Methanesulfonyl-2-(2,2,2-trifluoro-1-methyl-ethoxy)-phenyl]-[1-(5-methyl-[1,2,4]oxadiazol-3-yl)-3-aza-bicyclo[3.1.0]hex-3-yl]-methanone] gave a pIC50 of 6.60.

On to `C[C@@H](Oc1ccc(S(C)(=O)=O)cc1C(=O)N1CC2CC2(c2coc(C3CC3)n2)C1)C(F)(F)F` (single isomer, unassigned) [Example 83], for which the negative-log IC50 (pIC50) was 8.52.

Regarding `C[C@H](Oc1ccc(S(C)(=O)=O)cc1C(=O)N1CC2CC2(c2noc(C3(C(F)(F)F)CC3)n2)C1)C(F)(F)F` (mixture of isomers) [Example 65, [5-Methanesulfonyl-2-(2,2,2-trifluoro-1-methyl-ethoxy)-phenyl]-{1-[5-(1-trifluoromethyl-cyclopropyl)-[1,2,4]oxadiazol-3-yl]-3-aza-bicyclo[3.1.0]hex-3-yl}-methanone], the negative logarithm of the IC50 (pIC50) is 8.05. As for `COC1(c2nc(C34CC3CN(C(=O)c3cc(S(C)(=O)=O)ccc3O[C@H](C)C(F)(F)F)C4)no2)CC1` (mixture of isomers) [Example 119, [5-Methanesulfonyl-2-(2,2,2-trifluoro-1-methyl-ethoxy)-phenyl]-{1-[5-(1-methoxy-cyclopropyl)-[1,2,4]oxadiazol-3-yl]-3-aza-bicyclo[3.1.0]hex-3-yl}-methanone], the figure is 7.96. Then `C[C@H](Oc1ccc(S(C)(=O)=O)cc1C(=O)N1CC2CC2(c2nnc(C(F)(F)F)o2)C1)C(F)(F)F` (single isomer, unassigned) [Example 126, [5-Methanesulfonyl-2-(2,2,2-trifluoro-1-methyl-ethoxy)-phenyl]-[1-(5-trifluoromethyl-[1,3,4]oxadiazol-2-yl)-3-aza-bicyclo[3.1.0]hex-3-yl]-methanone], with 7.80.

With `C[C@H](Oc1ccc(S(C)(=O)=O)cc1C(=O)N1CC2CC2(c2nnc(C3CC3)o2)C1)C(F)(F)F` (mixture of isomers) [Example 147, [1-(5-Cyclopropyl-[1,3,4]oxadiazol-2-yl)-3-aza-bicyclo[3.1.0]hex-3-yl]-[5-methanesulfonyl-2-(2,2,2-trifluoro-1-methyl-ethoxy)-phenyl]-methanone], the pIC50 is 7.74. As for `CCS(=O)(=O)c1ccc(O[C@H](C)C(F)(F)F)c(C(=O)N2CC3CC3(c3cc(C(F)(F)F)on3)C2)c1` (single isomer, unassigned) [Example 106, [5-Ethanesulfonyl-2-(2,2,2-trifluoro-1-methyl-ethoxy)-phenyl]-[1-(5-trifluoromethyl-isoxazol-3-yl)-3-aza-bicyclo[3.1.0]hex-3-yl]-methanone], the figure is 6.61; as for `C[C@@H](Oc1ccc(S(C)(=O)=O)cc1C(=O)N1CC2CC2(c2nc(C(F)(F)F)co2)C1)C(F)(F)F` (mixture of isomers) [Example 113, [5-Methanesulfonyl-2-(2,2,2-trifluoro-1-methyl-ethoxy)-phenyl]-[1-(4-trifluoromethyl-oxazol-2-yl)-3-aza-bicyclo[3.1.0]hex-3-yl]-methanone], 6.67.

The record behind these values is US9012489B2, “Phenyl-3-aza-bicyclo[3.1.0]hex-3-yl-methanones and the use thereof as medicament” (Boehringer Ingelheim International GmbH, priority 2011, dated 2015).
